Measurements published in patent publication US20040186166A1, “Cannabinoid analogs as peroxisome proliferator activated nuclear receptor gamma activators” (priority 2002, published 2004).

How the values were obtained:
mPPARγ1 = target: T1, mPPARγ1 (Mus musculus, UniProt P37238); assay: Partial protease (trypsin) digestion assay, PPARγ; assay type: binding
T1 construct: made in house; host or cells: reticulocyte lysate in vitro transcription/translation (Promega) from pCMX-mPPARγ1
T1 sequence (P37238 1-475 isoform P37238-2): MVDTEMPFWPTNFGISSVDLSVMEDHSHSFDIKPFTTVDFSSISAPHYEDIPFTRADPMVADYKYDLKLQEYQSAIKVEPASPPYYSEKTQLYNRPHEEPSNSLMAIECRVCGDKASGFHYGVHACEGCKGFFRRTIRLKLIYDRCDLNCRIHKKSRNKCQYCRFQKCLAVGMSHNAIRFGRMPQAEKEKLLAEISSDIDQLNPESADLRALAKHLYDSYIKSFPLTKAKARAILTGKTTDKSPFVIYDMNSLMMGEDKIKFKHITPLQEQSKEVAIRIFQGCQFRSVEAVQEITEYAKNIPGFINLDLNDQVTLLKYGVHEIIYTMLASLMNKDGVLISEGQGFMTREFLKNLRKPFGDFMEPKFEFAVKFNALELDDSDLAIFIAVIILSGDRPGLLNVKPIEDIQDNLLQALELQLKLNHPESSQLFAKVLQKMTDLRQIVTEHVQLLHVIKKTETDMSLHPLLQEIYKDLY
Procedure: Partial protease digestion was carried out as described by Leng et. al. (J Steroid Biochem Mol Biol 46:643-61, 1993). PPAR proteins were made by in vitro transcription/translation reactions in reticulocyte lysate according to the manufacture's instructions (Promega). AJA, GW347845, or vehicle alone was incubated with the 35S-labeled PPARs at room temperature for one hour before trypsin digestion. Reactions were stopped by boiling in SDS-containing sample buffer, and lysates were subjected to SDS-PAGE and autoradiography.
To determine if AJA can bind to PPARγ, in vitro translated ^35S-labeled mPPARγ1 was incubated with AJA or a carrier vehicle before trypsin digestion. To test if AJA binds to PPARs, partial proteinase digestion assays were conducted as described previously (Leng et al., J Steroid Biochem Mol Biol 46:643-61, 1993). […] Such conformational change can be detected by limited proteinase digestion based on alteration of the accessibility of proteolytic sites on the surface of the receptors.
The PPAR proteins were synthesized and labeled with ^35S-methionine in reticulocyte lysate and incubated with AJA, GW347845, or vehicle alone at room temperature for one hour before trypsin digestion. […] The proteolytic patterns of PPAR proteins were then analyzed by SDS-PAGE and autoradiography, and compared with vehicle-treated control samples. […]

human PPARγ = target: T2, human PPARγ (Homo sapiens, UniProt P37231); assay: Gal4-dependent MH100-Luc reporter, human PPARγ; assay type: cell-based; details: compared with mouse PPARγ
T2 construct: The Gal4-hPPAR LBD constructs were obtained from GlaxoSmithKline; host or cells: HEK293
T2 sequence (P37231 238-503 limits assumed): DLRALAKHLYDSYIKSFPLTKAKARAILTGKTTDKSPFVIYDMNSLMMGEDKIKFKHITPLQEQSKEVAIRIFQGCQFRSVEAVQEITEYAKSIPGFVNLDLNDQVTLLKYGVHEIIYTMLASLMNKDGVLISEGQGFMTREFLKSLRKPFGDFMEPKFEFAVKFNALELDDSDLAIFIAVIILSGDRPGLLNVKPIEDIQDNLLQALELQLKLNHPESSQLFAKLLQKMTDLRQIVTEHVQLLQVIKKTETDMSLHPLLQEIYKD
Procedure: The pGEX-DRIP205 (527˜970) was obtained from the Sloan-Kettering Cancer Center. The Gal4-hPPAR LBD constructs were obtained from GlaxoSmithKline, Research Triangle Park, NC. The IL8-Luciferase reporter was obtained from Celgene, San Diego, Calif. The plasmids mPPARα, mPPARγ1, mPPARδ , and hRXRα were in the pCMX vector (Umesono et al., Cell 65:1255-1266, 1991).
For PPARγ activation assay, HEK293 cells were plated in 12-well cell culture plates and maintained in Dulbecco's modified Eagle's medium (DMEM) supplemented with 10% fetal bovine serum (FBS) at 37° C. under 5% CO2. […] The average normalized luciferase activity was determined via triplicate experiments. […]
To further confirm activation of PPARγ by AJA, and also to determine PPARγ species specificity, the ability of AJA to activate the chimeric Gal4-DBD/PPAR fusion proteins on a Gal4-dependent MH100-Luc reporter was assessed (FIG. 4A). The PPARs were expressed as Gal4 DBD fusion proteins, which bind to the UAS promoter containing 4 copies of a synthetic Gal4 binding site upstream of the minimal thymidine kinase (TK) promoter. […] Transfected cells were treated with increasing concentrations of AJA from 10-60 μM and the luciferase activities were determined in triplicate experiments. […]

## CCCCCCC(C)(C)c1cc(O)c2c(c1)OC(C)(C)[C@@H]1CC=C(C(=O)O)C[C@@H]21 [AJA, dimethylheptyl-THC-11-oic acid]
mPPARγ1; 20 μM AJA, 30 μg/ml trypsin, 30 or 60 min
  trypsin-resistant PPARγ fragments (protection from trypsin digestion): Two prominent trypsin-resistant fragments of 30 and 24 kDa
mPPARγ1; 2, 20 and 100 μM AJA
  proteinase-resistant PPARγ fragments, concentration dependence: proteinase-resistant PPARγ fragments were observed
Human PPARγ
  activation of human PPARγ: activates human PPARγ as efficiently as mouse PPARγ
